Experimental data reported in patent publication US10533044B2, “Integrin Antagonists” (The General Hospital Corporation, priority 2014, dated 2020).
Positions of bridges follow the written chain, without caps; N, C: chain ends. Non-standard residues stand in square brackets, D forms with d. Residues, ends and D or L forms follow the SMILES beside them. hArg = N=C(N)NCCCC[C@H](N)C(=O)O; Mpa = O=C(O)CCS

What was measured:
αVβ3 = test: AP5 LIBS expression on αVβ3^N/S or Mn2+-activated αVβ3 in presence of R-epti-D; assay type: cell-based; details: αVβ3^N/S in Ca2+/Mg2+ or Mn2+-activated αVβ3; preliminary study
Procedure: FIG. 16. […] One experiment was done under each condition. […] Common residues are in black. […] Spheres represent the metal ion at MIDAS.
K562-αVβ3 cells, transiently transfected HEK293T or αVβ3^+M21 cells (0.5×10^6 in 100 μl WB) were incubated in the absence or presence of unlabeled soluble FN10 (5 μg) in Ca^2+/Mg^2+ or in Mn^2+ (30 min; at 25° C.). Alexa647-labeled AP5 Fab (plus Alexa488-labeled AP3, when HEK293T cells were used), unlabeled anti-LIBS-1 (all to 10 μg/ml) or LIBS-6 ascites (to 1:50 dilution) were added, and the cells incubated for an additional 30 min before washing. APC-labeled goat anti-mouse Fc-specific antibody was added to anti-LIBS-1- or anti-LIBS-6-bound M21 cells, cells were incubated for an additional 30 min at 4° C. then washed, resuspended, fixed in 4% paraformaldehyde and analyzed by flow cytometry. LIBS epitope expression was measured and expressed as MFI (in case of K562-αVβ3 or M21 cells) and normalized (in case of HEK293T cells) by dividing its MFI by the MFI for Alexa488-labeled AP3, and multiplied by 100.

αVβ3^N/S [1] = target: T1, αVβ3^N/S (Homo sapiens, UniProt P05106+P06756, N365S); test: biochemical; details: IC50, inhibition of fibrinogen binding to αVβ3^N/S, HEK293 cells, constitutively active αVβ3^N/S
T1 sequence (P06756 31-889 limits assumed): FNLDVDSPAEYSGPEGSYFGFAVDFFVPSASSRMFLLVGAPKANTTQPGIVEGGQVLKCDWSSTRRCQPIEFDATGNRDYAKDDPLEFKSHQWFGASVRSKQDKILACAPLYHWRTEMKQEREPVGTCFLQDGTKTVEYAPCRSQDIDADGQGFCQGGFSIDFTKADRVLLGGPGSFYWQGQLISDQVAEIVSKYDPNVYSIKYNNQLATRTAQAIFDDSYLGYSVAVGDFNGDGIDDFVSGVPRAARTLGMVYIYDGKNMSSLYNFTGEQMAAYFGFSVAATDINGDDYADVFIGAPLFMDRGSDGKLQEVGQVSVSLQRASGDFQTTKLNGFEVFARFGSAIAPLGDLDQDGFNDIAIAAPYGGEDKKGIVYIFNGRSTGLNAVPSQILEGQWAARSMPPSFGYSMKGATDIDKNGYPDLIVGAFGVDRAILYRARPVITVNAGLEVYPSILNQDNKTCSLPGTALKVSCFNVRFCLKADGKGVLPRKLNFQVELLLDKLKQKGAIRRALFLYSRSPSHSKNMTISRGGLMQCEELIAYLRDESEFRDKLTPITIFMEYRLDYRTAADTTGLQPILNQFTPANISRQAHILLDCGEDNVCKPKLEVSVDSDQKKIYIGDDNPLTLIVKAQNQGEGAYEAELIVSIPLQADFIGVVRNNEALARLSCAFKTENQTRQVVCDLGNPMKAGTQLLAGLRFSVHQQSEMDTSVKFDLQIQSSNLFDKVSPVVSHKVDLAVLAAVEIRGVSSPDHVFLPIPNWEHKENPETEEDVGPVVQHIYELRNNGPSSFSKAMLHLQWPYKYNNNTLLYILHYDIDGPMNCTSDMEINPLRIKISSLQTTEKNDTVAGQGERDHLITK
T1 sequence (P06756 891-1048 partner limits assumed): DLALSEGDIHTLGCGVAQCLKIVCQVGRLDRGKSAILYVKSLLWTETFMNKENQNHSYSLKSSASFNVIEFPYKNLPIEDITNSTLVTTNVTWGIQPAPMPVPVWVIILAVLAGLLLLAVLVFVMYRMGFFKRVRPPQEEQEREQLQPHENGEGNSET
T1 sequence (P05106 27-788 N365S): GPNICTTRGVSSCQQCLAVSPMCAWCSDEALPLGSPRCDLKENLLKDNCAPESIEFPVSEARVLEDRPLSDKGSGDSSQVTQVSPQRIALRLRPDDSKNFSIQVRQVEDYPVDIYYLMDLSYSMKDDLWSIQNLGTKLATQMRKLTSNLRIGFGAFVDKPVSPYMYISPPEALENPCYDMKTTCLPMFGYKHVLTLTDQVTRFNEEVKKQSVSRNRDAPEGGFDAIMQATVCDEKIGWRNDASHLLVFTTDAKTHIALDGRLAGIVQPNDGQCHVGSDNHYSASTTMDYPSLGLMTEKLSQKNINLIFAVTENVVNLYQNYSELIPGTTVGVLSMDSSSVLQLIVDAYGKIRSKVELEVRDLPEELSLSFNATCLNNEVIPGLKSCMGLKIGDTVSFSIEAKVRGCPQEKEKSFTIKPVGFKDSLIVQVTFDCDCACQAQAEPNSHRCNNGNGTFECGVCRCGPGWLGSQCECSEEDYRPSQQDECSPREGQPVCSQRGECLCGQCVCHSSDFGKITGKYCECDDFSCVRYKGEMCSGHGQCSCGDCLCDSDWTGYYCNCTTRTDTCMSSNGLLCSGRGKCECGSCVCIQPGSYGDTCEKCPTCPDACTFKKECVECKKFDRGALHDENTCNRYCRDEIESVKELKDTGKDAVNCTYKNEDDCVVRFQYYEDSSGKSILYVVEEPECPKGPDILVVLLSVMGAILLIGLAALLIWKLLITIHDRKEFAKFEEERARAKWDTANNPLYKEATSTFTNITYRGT

αVβ3^N/S [2] = target: T1, αVβ3^N/S
platelet integrin αIIbβ3 = platelet integrin αIIbβ3 (Homo sapiens, UniProt P05106+P08514); details: parenteral use; cited from earlier work
platelet integrin αIIbβ3, sequence (P08514 32-887 limits assumed): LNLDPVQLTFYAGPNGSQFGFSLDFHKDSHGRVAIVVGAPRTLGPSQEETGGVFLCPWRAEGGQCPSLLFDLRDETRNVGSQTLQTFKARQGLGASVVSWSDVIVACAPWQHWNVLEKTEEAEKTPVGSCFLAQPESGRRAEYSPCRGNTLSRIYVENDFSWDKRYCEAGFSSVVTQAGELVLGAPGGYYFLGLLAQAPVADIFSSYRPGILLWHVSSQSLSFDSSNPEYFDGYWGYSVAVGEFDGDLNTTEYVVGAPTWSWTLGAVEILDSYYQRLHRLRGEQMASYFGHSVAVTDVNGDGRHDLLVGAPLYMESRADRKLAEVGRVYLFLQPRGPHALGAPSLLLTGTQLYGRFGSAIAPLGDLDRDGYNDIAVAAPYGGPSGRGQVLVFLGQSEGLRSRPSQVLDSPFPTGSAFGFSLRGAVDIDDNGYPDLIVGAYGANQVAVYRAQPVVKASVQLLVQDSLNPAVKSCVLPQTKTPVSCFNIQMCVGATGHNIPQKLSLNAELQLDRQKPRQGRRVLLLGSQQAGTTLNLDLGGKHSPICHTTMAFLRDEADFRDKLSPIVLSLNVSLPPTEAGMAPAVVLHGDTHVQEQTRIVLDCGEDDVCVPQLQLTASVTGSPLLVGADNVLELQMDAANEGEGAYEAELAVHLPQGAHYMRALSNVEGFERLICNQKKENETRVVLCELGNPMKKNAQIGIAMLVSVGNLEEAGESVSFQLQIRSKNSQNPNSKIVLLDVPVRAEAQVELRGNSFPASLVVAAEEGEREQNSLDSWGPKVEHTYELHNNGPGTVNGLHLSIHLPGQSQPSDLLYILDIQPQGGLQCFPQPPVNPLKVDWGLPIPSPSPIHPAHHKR
platelet integrin αIIbβ3, sequence (P08514 891-1039 partner limits assumed): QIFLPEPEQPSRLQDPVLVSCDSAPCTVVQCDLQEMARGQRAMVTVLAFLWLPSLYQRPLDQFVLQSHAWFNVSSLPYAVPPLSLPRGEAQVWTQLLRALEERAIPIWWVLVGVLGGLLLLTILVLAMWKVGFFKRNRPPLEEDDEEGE
platelet integrin αIIbβ3, sequence (P05106 27-788): as the sequence (P05106 27-788 N365S) above, with S339N counted along it

N=C(N)NCCC[C@@H]1NC(=O)CCSSC[C@@H](C(N)=O)NC(=O)[C@@H]2CCCN2C(=O)[C@@H](Cc2c[nH]c3ccccc23)NC(=O)[C@H](CC(=O)O)NC(=O)CNC1=O [R-epti-D] ([Mpa]RGD[dW]PC-NH2; disulfide 1-7)
AP5 LIBS expression (αVβ3): reduced AP5 LIBS expression | IC50 (αVβ3^N/S [1]): 2080 nM | IC50 (αVβ3^N/S [1]; converted): ~2000 nM

N=C(N)NCCCC[C@@H]1NC(=O)CCSSC[C@@H](C(N)=O)NC(=O)[C@@H]2CCCN2C(=O)[C@H](Cc2c[nH]c3ccccc23)NC(=O)[C@H](CC(=O)O)NC(=O)CNC1=O [eptifibatide] ([Mpa][hArg]GDWPC-NH2; disulfide 1-7)
Binding to αVβ3 (αVβ3^N/S [2]): does not bind | Patients with severe thrombocytopenia (platelet integrin αIIbβ3): ~2%
